# Test results reported in patent US6093732A, “4-hydroxyquinoline-3-carboxamides and hydrazides as antiviral agents” (Pharmacia & Upjohn Company, priority 1998, dated 2000).
# Target: T1, HCMV polymerase (Human cytomegalovirus, UniProt P08546)
# T1 construct: made in house; host or cells: recombinant baculovirus-infected SF-9 cells
# Assay: HCMV polymerase scintillation proximity assay (SPA), modified version
# Type: biochemical
# Settings: CMV polymerase; Table 1; modified assay with 4.5 mM DTT, compounds in 100% DMSO; read-out: Antiviral Selective Polymerase IC50 Values, CMV
# Experimental: The HCMV polymerase assay is performed using a scintillation proximity assay (SPA) as described in several references, such as N. D. Cook, et al., Pharmaceutical Manufacturing International, pages 49-53 (1992); K. Takeuchi, Laboratory Practice, September issue (1992); U.S. Pat. No. 4,568,649 (1986); which are incorporated by reference herein. Reactions are performed in 96-well plates. The assay is conducted in 100 μl volume with 5.4 mM HEPES (pH 7.5), 11.7 mM KCl, 4.5 mM MgCl2, 0.36 mg/ml BSA, and 90 nM ^3 H-dTTP. Assays are run with and without CHAPS, (3-[(3-Cholamidopropyl)-dimethylammonio]-1-propane-sulfonate) at a final concentration of 2 mM. HCMV polymerase is diluted in enzyme dilution buffer containing 50% glycerol, 250 mM NaCl, 10 mM HEPES (pH 7.5), 100 μg/ml BSA, and 0.01% sodium azide. The HCMV polymerase, which is expressed in recombinant baculovirus-infected SF-9 cells and purified according to literature procedures, is added at 10% (or 10 μl) of the final reaction volume, i.e., 100 μl. Compounds are diluted in 50% DMSO and 10 μl are added to each well. Control wells contain an equivalent concentration of DMSO. Unless noted otherwise, reactions are initiated via the addition of 6 nM biotinylated poly(dA)-oligo(dT) template/primer to reaction mixtures containing the enzyme, substrate, and compounds of interest. Plates are incubated in a 25° C. or 37° C. H2 O bath and terminated via the addition of 40 μl/reaction of 0.5 M EDTA (pH 8) per well. Reactions are terminated within the time-frame during which substrate incorporation is linear and varied depending upon the enzyme and conditions used, i.e., 30 min. for HCMV polymerase. Ten μl of streptavidin-SPA beads (20 mg/ml in PBS/10% glycerol) are added following termination of the reaction. Plates are incubated 10 min. at 37° C., then equilibrated to room temperature, and counted on a Packard Topcount. Linear regressions are performed and IC50 's are calculated using computer software.
# A modified version of the above HCMV polymerase assay is performed as described above, but with the following changes: Compounds are diluted in 100% DMSO until final dilution into assay buffer. In the previous assay, compounds are diluted in 50% DMSO. 4.5 mM dithiotherotol (DTT) is added to the polymerase buffer. […] Other viral polymerase assays are performed using procedures similar to those described above.
# T1 sequence (P08546 whole entry): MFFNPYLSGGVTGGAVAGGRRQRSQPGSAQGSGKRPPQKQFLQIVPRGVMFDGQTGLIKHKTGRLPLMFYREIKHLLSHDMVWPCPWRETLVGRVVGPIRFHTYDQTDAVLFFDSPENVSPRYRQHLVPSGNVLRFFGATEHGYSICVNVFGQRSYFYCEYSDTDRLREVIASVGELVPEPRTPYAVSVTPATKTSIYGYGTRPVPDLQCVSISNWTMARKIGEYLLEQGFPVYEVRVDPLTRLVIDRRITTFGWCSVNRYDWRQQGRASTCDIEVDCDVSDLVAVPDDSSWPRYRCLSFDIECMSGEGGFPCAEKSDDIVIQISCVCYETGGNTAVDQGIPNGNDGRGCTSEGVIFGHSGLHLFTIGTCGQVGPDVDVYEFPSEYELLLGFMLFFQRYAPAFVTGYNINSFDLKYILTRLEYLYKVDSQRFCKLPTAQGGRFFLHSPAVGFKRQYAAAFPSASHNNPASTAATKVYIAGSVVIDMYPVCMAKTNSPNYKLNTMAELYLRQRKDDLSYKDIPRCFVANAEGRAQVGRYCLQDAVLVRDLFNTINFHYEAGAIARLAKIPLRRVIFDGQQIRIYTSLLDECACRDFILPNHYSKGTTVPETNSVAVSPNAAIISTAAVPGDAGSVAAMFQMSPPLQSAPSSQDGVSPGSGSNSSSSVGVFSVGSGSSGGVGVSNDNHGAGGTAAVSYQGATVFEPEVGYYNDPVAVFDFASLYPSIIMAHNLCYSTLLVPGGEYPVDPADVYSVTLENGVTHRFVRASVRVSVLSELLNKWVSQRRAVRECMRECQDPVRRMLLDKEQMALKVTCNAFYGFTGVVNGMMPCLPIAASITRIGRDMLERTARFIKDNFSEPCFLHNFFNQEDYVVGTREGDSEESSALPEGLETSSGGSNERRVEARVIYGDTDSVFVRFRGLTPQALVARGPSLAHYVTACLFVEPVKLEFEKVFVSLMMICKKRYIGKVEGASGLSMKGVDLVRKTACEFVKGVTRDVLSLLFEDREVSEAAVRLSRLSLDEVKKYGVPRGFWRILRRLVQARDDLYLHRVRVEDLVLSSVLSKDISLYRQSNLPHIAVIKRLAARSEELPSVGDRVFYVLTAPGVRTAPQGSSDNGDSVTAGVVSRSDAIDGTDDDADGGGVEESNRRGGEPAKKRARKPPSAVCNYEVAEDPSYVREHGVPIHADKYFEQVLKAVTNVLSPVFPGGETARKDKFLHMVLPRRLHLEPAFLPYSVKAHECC
row,IC50,SMILES
1,33.1 µM,"O=C(NCc1ccc(Cl)cc1)c1cnc2c(Cl)ccc(C(F)(F)F)c2c1O [Example 59, 8-Chloro-N-((4-chlorophenyl)methyl)-4-hydroxy-5-trifluoro-methyl-3-quinolinecarboxamide]"
2,4 µM,"COc1cc(OC)c2ncc(C(=O)NCc3ccc(Cl)cc3)c(O)c2c1 [Example 60, N-((4-Chlorophenyl)methyl)-4-hydroxy-6,8-dimethoxy-3-quinolinecarboxamide]"
3,3.1 µM,"COc1cc2ncc(C(=O)NCc3ccc(Cl)cc3)c(O)c2cc1OC [Example 61, N-((4-Chlorophenyl)methyl)-4-hydroxy-6,7-dimethoxy-3-quinolinecarboxamide]"
4,4.6 µM,"Cc1cccc2ncc(C(=O)NCc3ccc(Cl)cc3)c(O)c12 [Example 62, N-((4-Chlorophenyl)methyl)-4-hydroxy-5-methyl-3-quinoline-carboxamide]"
5,7 µM,"CC(C)(C)c1ccc2ncc(C(=O)NCc3ccc(Cl)cc3)c(O)c2c1 [Example 63, N-[(4-Chlorophenyl)methyl]-6-(1,1-dimethylethyl)-4-hydroxy-3-quinolinecarboxamide]"
6,8.5 µM,"O=C(NCc1ccc(Cl)cc1)c1cnc2cc3c(cc2c1O)CCC3 [Example 64, N-[(4-Chlorophenyl)methyl]-7,8-dihydro-4-hydroxy-6H-cyclopent a[g]quinoline-3-carboxamide]"
7,3.3 µM,"CSc1cccc2c(=O)c(C(=O)NCc3ccc(Cl)cc3)c[nH]c12 [Example 65, N-[(4-Chlorophenyl)methyl]-1,4-dihydro-8-(methylthio)-4-oxo-3-quinolinecarboxamide]"
8,0.29 µM,"O=C(NCc1ccc(Cl)cc1)c1cnc2ccc3ncsc3c2c1O [Example 66, N-[(4-Chlorophenyl)methyl]-9-hydroxythiazolo[5,4-f]quinoline-8-carboxamide]"
9,9.4 µM,"O=C(NCc1ccc(Cl)cc1)c1cnc2cc(C(F)(F)F)c(SCc3ccccc3)cc2c1O [Example 72, N-[(4-Chlorophenyl)methyl]-4-hydroxy-6-[(phenylmethyl)thio]-7-(trifluoromethyl)-3-quinolinecarboxamide]"
10,5.2 µM,"O=C(NCc1ccc(Cl)cc1)c1cnc2cccc(C(F)(F)F)c2c1O [Example 76, N-((4-Chlorophenyl)methyl)-4-hydroxy-5-trifluoromethyl-3-quinolinecarboxamide]"
11,4 µM,"Cc1ccccc1-c1cc(F)c2ncc(C(=O)NCc3ccc(Cl)cc3)c(O)c2c1 [Example 77, N-((4-Chlorophenyl)methyl)-8-fluoro-4-hydroxy-6-(2-methyl-phenyl)-3-quinolinecarboxamide]"
12,0.71 µM,"O=C(NCc1ccc(Cl)cc1)c1cnc2c(OC3CCOCC3)c(F)c(F)cc2c1O [Example 78, N-((4-Chlorophenyl)methyl)-6,7-difluoro-4-hydroxy-8-(tetrahydro-2H-pyran-4-oxy)-3-quinolinecarboxamide]"
13,0.96 µM,"COc1c(F)c(F)cc2c(O)c(C(=O)NCc3ccc(Cl)cc3)cnc12 [Example 79, N-((4-Chlorophenyl)methyl)-6,7-difluoro-4-hydroxy-8-methoxy-3-quinolinecarboxamide]"
14,2.4 µM,"COc1c(F)cc2c(O)c(C(=O)NCc3ccc(Cl)cc3)cnc2c1OC [Example 80, N-((4-Chlorophenyl)methyl)-7,8-dimethoxy-6-fluoro-4-hydroxy-3-quinolinecarboxamide]"
15,7.8 µM,"O=C(NCc1ccc(Cl)cc1)c1cnc2c(F)c(Oc3ccc(CO)cc3)c(F)cc2c1O [Example 81, N-((4-Chlorophenyl)methyl)-6,8-difluoro-4-hydroxy-7-(4-(hydroxymethyl)phenoxy)-3-quinolinecarboxamide]"
16,2.5 µM,"COc1c(F)cc2c(O)c(C(=O)NCc3ccc(Cl)cc3)cnc2c1F [Example 82, N-((4-Chlorophenyl)methyl)-6,8-difluoro-4-hydroxy-7-methoxy-3-quinolinecarboxamide]"
17,4.3 µM,"COCCOc1c(F)cc2c(O)c(C(=O)NCc3ccc(Cl)cc3)cnc2c1F [Example 83, N-((4-Chlorophenyl)methyl)-6,8-difluoro-4-hydroxy-7-(2-(methoxy)ethoxy)-3-quinolinecarboxamide]"

row,IC50,SMILES
1,0.79 µM,"COCCOc1c(F)c(F)cc2c(O)c(C(=O)NCc3ccc(Cl)cc3)cnc12 [Example 84, N-((4-Chlorophenyl)methyl)-6,7-difluoro-4-hydroxy-8-(2-(methoxy)ethoxy)-3-quinolinecarboxamide]"
2,18.1 µM,"COCCOc1c(F)cc2c(O)c(C(=O)NCc3ccc(Cl)cc3)cnc2c1OCCOC [Example 85, N-((4-Chlorophenyl)methyl)-6-fluoro-7,8-di(2-(methoxy)ethoxy)-4-hydroxy-3-quinolinecarboxamide]"
3,10.7 µM,"CC(C)Oc1c(F)cc2c(O)c(C(=O)NCc3ccc(Cl)cc3)cnc2c1F [Example 86, N-((4-Chlorophenyl)methyl)-6,8-difluoro-4-hydroxy-7-(1-methylethoxy)-3-quinolinecarboxamide]"
4,7.9 µM,"O=C(NCc1ccc(Cl)cc1)c1cnc2c(F)cc(-c3nccs3)cc2c1O [Example 87, N-(4-Chlorobenzyl)-8-fluoro-4-hydroxy-6-(1,3-thiazol-2-yl)-3-quinolinecarboxamide]"
5,30.3 µM,"COCCNc1c(F)cc2c(O)c(C(=O)NCc3ccc(Cl)cc3)cnc2c1F [Example 88, N-(4-Chlorobenzyl)-6,8-difluoro-4-hydroxy-7-[(2-methoxyethyl)amino]-3-quinolinecarboxamide]"
6,7.2 µM,"N#CCCCC#Cc1cc(F)c2ncc(C(=O)NCc3ccc(Cl)cc3)c(O)c2c1 [Example 89, N-(4-Chlorobenzyl)-6-(5-cyano-1-pentynyl)-8-fluoro-4-hydroxy-3-quinolinecarboxamide]"
7,2.9 µM,"O=C(NCc1ccc(Cl)cc1)c1cnc2c(F)cc(-c3ccccn3)cc2c1O [Example 90, N-(4-Chlorobenzyl)-8-fluoro-4-hydroxy-6-(2-pyridinyl)-3-quinolinecarboxamide]"
8,3.8 µM,"O=C(NNc1ccc(Cl)cc1)c1cnc2ccc(I)cc2c1O [Example 91, 4-Hydroxy-6-iodo-3-quinolinecarboxylic acid 2-(4-chlorophenyl)hydrazide]"
9,20.6 µM,"O=C(NCc1ccc(Cl)cc1)c1cnc2c(F)cc(C#Cc3ccccn3)cc2c1O [Example 92, N-(4-Chlorobenzyl)-8-fluoro-4-hydroxy-6-[2-(2-pyridinyl)ethynyl]-3-quinolinecarboxamide]"
10,5.3 µM,"O=C(NCc1ccc(Cl)cc1)c1cnc2c(F)cc(C#CCCO)cc2c1O [Example 94, N-(4-Chlorobenzyl)-8-fluoro-4-hydroxy-6-(4-hydroxy-1-butynyl)-3-quinolinecarboxamide]"
11,1.9 µM,"COCC#Cc1cc(F)c2ncc(C(=O)NCc3ccc(Cl)cc3)c(O)c2c1 [Example 95, N-(4-Chlorobenzyl)-8-fluoro-4-hydroxy-6-(3-methoxy-1-propynyl)-3-quinolinecarboxamide]"
12,4.5 µM,"CC(O)C#Cc1cc(F)c2ncc(C(=O)NCc3ccc(Cl)cc3)c(O)c2c1 (stereo not shown) [Example 96, N-(4-Chlorobenzyl)-8-fluoro-4-hydroxy-6-(3-hydroxy-1-butynyl)-3-quinolinecarboxamide]"
13,18.6 µM,"O=C(NCc1ccc(Cl)cc1)c1cnc2c(F)cc(-c3cc(Br)cs3)cc2c1O [Example 97, 6-(4-Bromo-2-thienyl)-N-(4-chlorobenzyl)-8-fluoro-4-hydroxy-3-quinolinecarboxamide]"
14,1.3 µM,"NNC(=S)c1cc(F)c2ncc(C(=O)NCc3ccc(Cl)cc3)c(O)c2c1 [Example 98, N-(4-Chlorobenzyl)-8-fluoro-6-(hydrazinocarbothioyl)-4-hydroxy-3-quinolinecarboxamide]"
15,6.7 µM,"Cc1nnc(-c2cc(F)c3ncc(C(=O)NCc4ccc(Cl)cc4)c(O)c3c2)s1 [Example 100, N-(4-Chlorobenzyl)-8-fluoro-4-hydroxy-6-(5-methyl-1,3,4-thiadiazol-2-yl)-3-quinolinecarboxamide]"
16,25.8 µM,"O=C(NCc1ccc(Cl)cc1)c1cnc2cc(C#CCO)ccc2c1O [Example 101, N-(4-Chlorobenzyl)-4-hydroxy-7-(3-hydroxy-1-propynyl)-3-quinolinecarboxamide]"
17,4.6 µM,"NC(=S)c1ccc2c(O)c(C(=O)NCc3ccc(Cl)cc3)cnc2c1 [Example 102, 7-(Aminocarbothioyl)-N-(4-chlorobenzyl)-4-hydroxy-3-quinoline-carboxamide]"
